From US6428654B1, “Fungicidal method” (Hercules Incorporated, priority 2000, dated 2002)
Where “and” joins values, the source holds several entries; their conditions need not be identical. Equal entries are not always repeated.

System: Aspergillus niger (ATCC 6275)
Assay: Microtiter XTT growth inhibition assay
Type: cell-based
Conditions: 37° C. 24 hours, XTT read at 465 nm, duplicate plates (Plate 1, Plate 2)
Description: Preparation of the Spore Inoculum—Two sterile petri dishes containing potato dextrose agar are inoculated with Aspergillus niger (ATCC 6275). The plates are incubated for at least 48 hours at 35+1 ° C. At the end of the incubation period, the plates are checked for mycelia and fruiting bodies of the fungus. To prepare the spore-mycelial suspension, the agar surface is scraped with a sterile cotton tip swab. The spores are suspended from the cotton swab in a sterile test tube containing a solution of 0.85% saline and 0.01% Tween 80 (v/v). The spore-mycelial suspension is shaken or vortexed to break up spore and mycelial clumps. Prior to the addition of the spore-mycelial suspension to the test tube containing saline and Tween, a spectrophotometer is set to 650 nm and the absorbance reading is balanced to zero. The optical density (absorbance) of the spore-mycelial suspension is measured in the spectrophotometer. If necessary, the optical density is adjusted to 0.29 absorbance units by addition of diluent or spores. At an optical density of 0.29 absorbance units (at 650 nm), the concentration of spores is 1×10^9 spores/ml. The spore-mycelial suspension is diluted 1/1000 to yield inoculum used for the microtiter assay, having a concentration of 1×10^6 spores/ml.
Microtiter Assay—Six MULTISCREEN filtration plates (96-well MULTISCREEN-GV, clear plates with 0.22 μm membrane; Millipore Corp., Molsheim, France) are used for a three dose response protocol. This protocol and the six MULTISCREEN plates allows for duplication of the experimental results. The three actives employed are BAS49002F (kresoxim methyl at 50 wt %; BASF Corporation, Ludwigshafen, Germany), AF1912 (diiodomethyl-paratolylsulfone; Angus Chemical Company, Buffalo Grove, Ill.), and MBTC (methylenebisthiocyanate; Aldrich Chemical Company, Milwaukee, Wis.). These actives are individually diluted with water to a concentration of 40 ppm actives. Using separate dilution blocks for each active, the actives are serially diluted to reach experimental dose ranges from 10 to 0.156 ppm. Along with the treatments (actives), Sabouraud Dextrose broth (DIFCO Laboratories, Detroit Mich.) and inoculum are added to each well. The microtiter plates are incubated at 37° C. for 24 hours, and after this period a 0.1% solution of XTT (2,3-bis[2-methoxy-4-nitro-5-sulfophenyl]-2H-tetrazolium-5-carboxanilide; Sigma Chemical, Saint Louis, Mo.) and 0.01% of PMS (phenazine methosulfate; Sigma Chemical, Saint Louis, Mo.) are added to each well. The plates are incubated for approximately 3 more hours. Filtration via the MULTISCREEN plates removes the mycelial growth and nonvegetated spores of Aspergillus niger. Each microtiter well is read at 465 nm for the reduction of XTT by metabolically active cells (i.e., a color change from the untreated controls would indicate respiring fungal cells). Growth inhibition results are presented in Table 2, which represents the processed absorbance data that has been converted as a percent inhibition of fungal growth by the three actives tested (BAS49002F, AF1912, and MBTC). The dashed lines in Table 2 indicate negative inhibition values, which indicate that cells were viable, but in futile cell cycles.

With N#CSCSC#N [MBTC, methylenebisthiocyanate] the “percent inhibition of fungal growth” value (0.156 ppm actives) was “— (The dashed lines in Table 2 indicate negative inhibition values, which indicate that cells were viable, but in futile cell cycles)”, the “percent inhibition of fungal growth” value (0.31 ppm actives) was “— (The dashed lines in Table 2 indicate negative inhibition values, which indicate that cells were viable, but in futile cell cycles)” and the “percent inhibition of fungal growth” value (0.625 ppm actives) was “— (The dashed lines in Table 2 indicate negative inhibition values, which indicate that cells were viable, but in futile cell cycles)”. The “percent inhibition of fungal growth” value (1.25 ppm actives) was “— (The dashed lines in Table 2 indicate negative inhibition values, which indicate that cells were viable, but in futile cell cycles)”, the “percent inhibition of fungal growth” value (2.5 ppm actives) was 86% and 84% and the “percent inhibition of fungal growth” value (5.0 ppm actives) was 88% and 89%. For the same compound, the “percent inhibition of fungal growth” value (10.0 ppm actives) was 88% and 89%.
